These results are taken from BindingDB's records for doi:10.7270/Q2W37TR5 (Nmmlsc, 2009).

Each structure is given as a SMILES string.

The target in one experiment is Ras-related C3 botulinum toxin substrate 1 (Mus musculus, UniProt P63001). As to the kind of experiment: wildtype Rac1 GTP binding inhibitors, SAR follow-up, biochemical, additional analogs, multiplex bead flow cytometry (AID 2040).
Settings: not given
What is called EC50 is the midpoint of the concentration-response curve. The low end stands for greater potency, the high end for weaker potency. In the case of `O=C1Nc2c(Br)cccc2C1=C1Nc2ccccc2C1=O`, the EC50 worked out at 30 µM. Consider `O=C1N=c2ccc(Br)cc2=C1c1[nH]c2ccccc2c1NO` [5-bromanyl-3-[3-(oxidanylamino)-1H-indol-2-yl]indol-2-one], for which the EC50 is 30 µM.

In turn, `O=C1N=c2c(F)cccc2=C1c1[nH]c2ccccc2c1NO` [7-fluoro-3-[3-(hydroxyamino)-1H-indol-2-yl]-2-indolone] registered an EC50 of 30 µM. Consider `O=C1Nc2c(F)cccc2C1=C1Nc2ccccc2C1=O`, for which a half-maximal effect (EC50) was put at 34.6 µM. The compound `O=C1NC(=S)N/C1=C1\C(=O)Nc2ccccc21` [(3Z)-3-(5-oxo-2-sulfanylideneimidazolidin-4-ylidene)-1H-indol-2-one] had an EC50 of 1.67 µM. `O=C1NC(=O)/C(=C2/C(=O)Nc3ccccc32)N1` showed a concentration giving a half-maximal response (EC50) of 2.64 µM.

`O=C1N=c2c(Br)cccc2=C1c1[nH]c2ccccc2c1NO` [7-bromanyl-3-[3-(oxidanylamino)-1H-indol-2-yl]indol-2-one]: the EC50 is 30 µM. `C[C@@H](C(=O)O)c1cccc(Oc2ccccc2)c1` [calcium;2-(3-phenoxyphenyl)propanoic acid;hydrate] displayed an EC50 of 30 µM. This lies in the double-digit micromolar range. As for `O=C1Nc2ccccc2/C1=C1/Nc2ccccc2C1=O` [2-[(3Z)-2-oxo-2,3-dihydro-1H-indol-3-ylidene]-2,3-dihydro-1H-indol-3-one], the EC50 was 30 µM. Take `O=C1Nc2c(Cl)cccc2C1=C1Nc2ccccc2C1=O`: the EC50 came to 30 µM. That is a double-digit micromolar value. With `O=C1N=c2ccccc2=C1c1[nH]c2ccccc2c1NO` [3-[3-(hydroxyamino)-1H-indol-2-yl]-2-indolone], the EC50 is 30 µM.

Consider `O=C1N=c2c(Cl)cccc2=C1c1[nH]c2ccccc2c1NO` [7-chloro-3-[3-(hydroxyamino)-1H-indol-2-yl]-2-indolone], for which the 50% effective concentration (EC50) came out at 30 µM. With `O=C1Nc2ccc(Br)cc2C1=C1Nc2ccccc2C1=O`, the EC50 came to 16.1 µM.

The experiment is the same for the next values; noted with them: inactive by the depositor's call.
`N#Cc1c(-c2ccc(Cl)cc2)c(C(=O)c2ccccc2)n(S(=O)(=O)c2ccc([N+](=O)[O-])cc2)c1N` [UNM-0000305780]: the midpoint of the response, the EC50, lay at 30 µM. In the case of `CC1=C(CC(=O)O)c2cc(F)ccc2/C1=C/c1ccc([S+](C)[O-])cc1` (stereo not drawn) [UNM-0000306136], a half-maximal response (EC50) required 30 µM. In other words, the double-digit micromolar range. On the same count and under the same terms, the figure for `COc1cc(-c2c(C#N)c(N)n(S(=O)(=O)c3c(C(C)C)cc(C(C)C)cc3C(C)C)c2C(=O)c2ccccc2)cc(OC)c1OC` [2-azanyl-5-(phenylcarbonyl)-4-(3,4,5-trimethoxyphenyl)-1-[2,4,6-tri(propan-2-yl)phenyl]sulfonyl-pyrrole-3-carbonitrile] is 75.3 µM. On the same count and under the same terms, the value for `O=C(C#Cc1ccccc1)c1cccnc1` [3-phenyl-1-pyridin-3-ylprop-2-yn-1-one] was 30 µM; that for `COc1ccc(C(=O)C#Cc2ccccc2)cc1` [1-(4-methoxyphenyl)-3-phenyl-2-propyn-1-one] was 30 µM; that for `O=C(C#Cc1ccccc1)c1ccc(Cl)cc1` [UNM-0000306055] was 30 µM. With `O=C(C#Cc1ccccc1)c1ccccc1[N+](=O)[O-]` [UNM-0000306038], the concentration giving a half-maximal response (EC50) was 30 µM. Regarding `COc1ccc2cc(CC(=O)O)ccc2c1` [2-(6-methoxynaphthalen-2-yl)ethanoic acid], a half-maximal response (EC50) required 30 µM.

Compound `COc1ccc(S(=O)(=O)n2c(N)c(C#N)c(-c3cncc(Br)c3)c2C(=O)c2ccccc2)cc1` [2-amino-5-benzoyl-4-(5-bromo-3-pyridinyl)-1-(4-methoxyphenyl)sulfonyl-3-pyrrolecarbonitrile] came in with an EC50 of 9.84 µM. This EC50 lies about 3-fold lower than the previous one. The compound `COc1ccc(S(=O)(=O)n2c(N)c(C#N)c(-c3cc(Br)c(OC)c(OC)c3)c2C(=O)c2ccccc2)cc1` [UNM-0000305782] had an EC50 of 30 µM. This EC50 lies about 3-fold higher than the previous one. For the compound `COC(=O)c1ccc(C(=O)C#Cc2ccccc2)cc1` [4-(1-oxo-3-phenylprop-2-ynyl)benzoic acid methyl ester], the concentration for a half-maximal effect (EC50) stood at 30 µM. That is a double-digit micromolar value.

In turn, `O=C(C#Cc1ccccc1)c1ccc(F)cc1` [UNM-0000306059] yielded an EC50 of 30 µM. Regarding `N#Cc1ccc(C(=O)C#Cc2ccccc2)cc1` [4-(3-phenylprop-2-ynoyl)benzenecarbonitrile], the EC50 stood at 30 µM. Consider `O=C(C#Cc1ccccc1)c1ccccc1` [UNM-0000306039], for which the response was half-maximal at 30 µM (EC50).

Compound `O=C1Nc2ccccc2/C1=C1/Cc2ccccc2C1=O` [UNM-0000305763] displayed a 50% effective concentration (EC50) of 30 µM. On the same count and under the same terms, the value for `O=C(C#Cc1ccccc1)c1ccc([N+](=O)[O-])cc1` [1-(4-nitrophenyl)-3-phenyl-2-propyn-1-one] was 30 µM; that for `O=C(C#Cc1ccccc1)c1ccc(OC(F)(F)F)cc1` was 30 µM; that for `CCCCS(=O)(=O)n1c(N)c(C#N)c(-c2cc(OC)c(OC)c(OC)c2)c1C(=O)c1ccccc1` [2-amino-5-benzoyl-1-butylsulfonyl-4-(3,4,5-trimethoxyphenyl)-3-pyrrolecarbonitrile] was 30 µM. Turning to `COc1ccc(-c2c(C#N)c(N)n(S(C)(=O)=O)c2C(=O)c2ccccc2)cc1Br` [2-azanyl-4-(3-bromanyl-4-methoxy-phenyl)-1-methylsulfonyl-5-(phenylcarbonyl)pyrrole-3-carbonitrile], the EC50 came out at 30 µM. Consider `CSc1ccc(/C=C2/C(C)=C(CC(=O)O)c3cc(F)ccc32)cc1` [{6-Fluoro-2-methyl-3-[1-(4-methylsulfanyl-phenyl)-meth-(E)-ylidene]-3H-inden-1-yl}-acetic acid], for which the 50% effective concentration (EC50) came to 54.7 µM. `CC(=O)Oc1ccccc1C(=O)O` [2-(acetyloxy)benzoic acid] registered a 50% effective concentration (EC50) of 30 µM. For the compound `O=[N+]([O-])c1ccc(C#Cc2ccccc2)cc1`, the EC50 is 30 µM. `COc1ccc(S(=O)(=O)n2c(N)c(C#N)c(-c3ccccc3)c2C(=O)c2ccc(Br)cc2)cc1` showed a concentration giving a half-maximal response (EC50) of 30 µM. Still for that read-out and setting: the figure for `O=C1Nc2cccc(Br)c2/C1=C1/Cc2ccccc2C1=O` is 12.1 µM; for `O=C1Nc2c(Br)cccc2/C1=C1/Cc2ccccc2C1=O` [(3E)-7-bromo-3-(3-oxo-1H-inden-2-ylidene)-1H-indol-2-one] it is 30 µM.
